We go through 4 compounds from patent publication US20040122001A1, “Pharmaceutical compounds” (priority 2000, published 2004).

A word on the melting point: it is the temperature, or range, at which the solid turns liquid.

Structures are written as SMILES.

As to `Fc1ccc2c(C3=CCN(CCC4OCCc5cc(Br)ccc54)CC3)c[nH]c2c1` (stereo not shown), the melting point was in the range of 184 to 185.6 °C.

In the case of `CNC(=O)c1ccc2c(c1)CCCN2CCN1CC=C(c2c[nH]c3cc(F)ccc23)CC1`, the melting point is 121 to 125 °C.

`NC(=O)c1ccc2c(c1)CCCN2CCN1CC=C(c2c[nH]c3cc(F)ccc23)CC1` came in with a melting point of 130 to 133 °C.

As to `O=C(NCCO)c1ccc2c(c1)CCCN2CCN1CC=C(c2c[nH]c3cc(F)ccc23)CC1`, the melting point lay in the range of 136 to 140 °C.
